Legend:
[1] = system: Rats with calcium chloride induced arrhythmias; experiment: Calcium chloride induced arrhythmias in narcotised rats (prophylactic i.v. administration); format: in vivo; conditions: control 10.9 min.
Text: By means of the intravenous infusion of a calcium chloride solution, […] induced in narcotised rats which, after termination of the infusion, continue for a certain period of time (modification of the method described by Malinow et al., Arch. Int. Pharmacodyn, 102, 266/1955). This arrhythmic phase is shortened by the prophylactic administration of antiarrhythmic drugs. […] The results of the experiments with calcium chloride induced arrhythmias on rats are summarized in the following Table I. The average period of arrhythmia is calculated from experiments with at least 10 animals.

[2] = system: guinea pig left ventricle; experiment: Refractory time of electrically stimulated guinea pig left ventricles (organ bath)
Protocol: The left ventricles of guinea pig hearts are electrically stimulated in an organ bath, the amplitude of contraction being recorded. By means of a second stimulus, the time is determined below which the heart muscle no longer reacts with a separately resolvable contraction. This time is defined as the refractory time.
The following Table II contains information concerning the maximum tested compound concentrations, as well as the average prolongation of the refractory time measured at this concentration in comparison with the initial value of, in each case, at least 6 experiments.

rabbit eye = experiment: Local anesthetic action on the rabbit eye (corneal reflex); format: in vivo, rabbits; conditions: for Period of Action: observation discontinued after 60 minutes
Protocol: The corneal reflex is induced in rabbits using a horse hair which bends with a pressure of about 250 mg (modification of the method described by M. von Frey, Beitrage zur Physiologie des Schmerzsinns, Vehr. d. Kgl. Sachs, Ges. d. Wiss. zu Leipzig, Math.-phys. Kl., 46, 185/1894; Untersuchungen uber die Sinnesfunktionen der menschlichen Haut, Leipzig, 1896). After instillation of local anesthetics into the conjunctival sac of the eye, the number of impacts with the horse hair which result in closure of the eyelid is increased. At intervals of 4 minutes, in each case a maximum of 100 successive impacts are carried out and such an action is taken as being 100%. The period of investigation is at most 60 minutes. The action of the compounds according to the present invention is compared with that of tetracaine and procainamide.
The following Table VII contains the results of the experiments on the rabbit eye. There are also given, in addition to the concentrations of the test solutions which were instilled into the conjunctival sac, the actions of the compounds in % (see description of the method), as well as their period of action. In each case, the observations were discontinued after 60 minutes.

in vivo = conditions: mouse, po
Protocol: The compounds according to the present invention are administered intragastrally to male mice (NMRI) with a body weight of from 20 to 25 g. Each dosage group consists of 4 animals. The LD50 values are determined after having observed the animals for 7 days.

[3] = Oryctolagus cuniculus, topical, concentration 1.0 %
[4] = Oryctolagus cuniculus, topical, concentration 0.1 %
[5] = Oryctolagus cuniculus, topical, concentration 0.5 %

| Compound | inhibition in vivo at 1 % (rabbit eye; [3]) | Period of Action (rabbit eye; concentration 1.0 %) | LD50 at 168 h (in vivo) | inhibition in vivo at 0.5 % (rabbit eye; [5]) | Period of Action (rabbit eye; concentration 0.5 %) | average prolongation of the refractory time ([2]; 1.6 × 10^-5 g/ml in the bath) | further results |
| --- | --- | --- | --- | --- | --- | --- | --- |
| COc1ccc2c(c1)-c1c(ccc(OC)c1OC)CC(Cc1ccccc1)N(C)CC2 (racemic) [Example 5, (±)-6-Benzyl-7-methyl-5,6;8,9-tetrahydro-1,2,12-trimethoxy-7H-dibenz(d,f)azonine] | 100% | > 60 min | ~1000 mg/kg | – | – | – | average period of arrhythmia ([1]; 5 mg/kg I.V.): 4.1 min; average prolongation of the refractory time ([2]; 4.0 × 10^-6 g/ml in the bath): 25 ms |
| COc1cccc(CC2Cc3ccc(OC)c(O)c3-c3cc(OC)ccc3CCN2C)c1 (single isomer, unassigned; (-)) [Example 2, (-)-6-(3'-Methoxybenzyl)-2,12-dimethoxy-1-hydroxy-7-methyl-5,6;8,9-tetrahydro-7H-dibenz(d,f)azonine] | 100% | > 60 min | 1000 mg/kg | 100% | about 52 Min. | – | average period of arrhythmia ([1]; 10 mg/kg I.V.): 4.9 min; average prolongation of the refractory time ([2]; 8.0 × 10^-6 g/ml in the bath): 46 ms; inhibition in vivo at 0.1 % (rabbit eye; [4]): 78%; Period of Action (rabbit eye; concentration 0.1 %): 46 min |
| COc1ccc2c(c1)-c1c(ccc(OC)c1O)CC(Cc1ccc(F)cc1)N(C)CC2 (single isomer, unassigned; (-)) [Example 3, (-)-6-(4'-Fluorobenzyl)-2,12-dimethoxy-1-hydroxy-7-methyl-5,6;8,9-tetrahydro-7H-dibenz(d,f)azonine] | – | – | 600 mg/kg | 100% | > 60 min | 29 ms | average period of arrhythmia ([1]; 10 mg/kg I.V.): 5.4 min |
| COc1cccc(CC2Cc3ccc(OC)c(OC)c3-c3cc(OC)ccc3CCN2C)c1 (single isomer, unassigned; (-)) [Example 6, (-)-6-(3'-Methoxybenzyl)-7-methyl-5,6;8,9-tetrahydro-1,2,12-trimethoxy-7H-dibenz(d,f)azonine] | 79% | > 60 min | ~300 mg/kg | – | – | – | average period of arrhythmia ([1]; 4 mg/kg I.V.): 4.6 min; inhibition in vivo at 2 % (rabbit eye; Oryctolagus cuniculus, topical, concentration 2.0 %): 100%; Period of Action (rabbit eye; concentration 2.0 %): > 60 min |
| COc1cccc(CC2Cc3ccc(OC)c(OC(C)=O)c3-c3cc(OC)ccc3CCN2C)c1 (single isomer, unassigned; (-)) [Example 7, (-)-1-Acetoxy-6-(3'-methoxybenzyl)-7-methyl-5,6;8,9-tetrahydro-2,12-dimethoxy-7H-dibenz(d,f)azonine] | 100% | > 60 min | 900 mg/kg | 63% | > 60 min | – | average period of arrhythmia ([1]; 4 mg/kg I.V.): 4.1 min; average prolongation of the refractory time ([2]; 4.0 × 10^-6 g/ml in the bath): 18 ms |
| CC[C@H]1[C@@H]2C[C@H]3[C@@H]4N(C)c5ccccc5[C@]45C[C@@H]([C@H]2[C@H]5O)N3[C@@H]1O [Ajmaline, ajmaline, reference compound] | – | – | – | – | – | 16 ms | – |
| COc1ccc2c(c1)-c1c(ccc(OC)c1O)CC(Cc1ccccc1)NCC2 (stereo not drawn) [Example 9, 6-Benzyl-2,12-dimethoxy-1-hydroxy-5,6;8,9-tetrahydro-7H-dibenz(d,f)azonine] | – | – | – | – | – | 27 ms | average period of arrhythmia ([1]; 5 mg/kg I.V.): 6.8 min |
| COc1ccc(CCN(C)CCCC(C#N)(c2ccc(OC)c(OC)c2)C(C)C)cc1OC (stereo not drawn) [Verapamil, verapamil, reference compound] | – | – | – | – | – | 16 ms | – |
| O=C1NC(=O)C(c2ccccc2)(c2ccccc2)N1 [phenytoin, reference compound] | – | – | – | – | – | -6 ms | average period of arrhythmia ([1]; 20 mg/kg I.V.): 16.5 min |
| CCCCNc1ccc(C(=O)OCCN(C)C)cc1 [tetracaine, reference compound] | – | – | – | – | – | – | inhibition in vivo at 0.1 % (rabbit eye; [4]): 100%; Period of Action (rabbit eye; concentration 0.1 %): about 44 Min.; duration of maximum activity strength (rabbit eye; concentration not given there): 44 min; maximum activity strength (rabbit eye; concentration not given there): 100% |
